System: 519858-162-T-J1-PDC spheroid growth inhibition
Assay: Anticancer human tumor 519858-162-T-J1-PDC patient-derived colon adenocarcinoma cell line growth inhibition [TAK]
Settings: spheroids with HUVEC and MSC; for IC50: curve of first compound; for viability, T/C: stronger effect = lower value
Procedure, shortened: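 Tumor cells were grown as spheroids with HUVEC and hMSC (60:25:15) and treated with targeted agents combined with TAK-243 or ipatasertib. Drugs were tested in half-log steps down from near the clinical Cmax, or from 10 microM where Cmax was unknown.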

[1] = second compound 0.3 µM, first compound 0.00316 µM
[2] = second compound 0.3 µM, first compound 0.01 µM
[3] = second compound 0.3 µM, first compound 0.0316 µM
[4] = second compound 0.3 µM, first compound 0.1 µM
[5] = second compound 0.949 µM, first compound 0.00316 µM
[6] = second compound 0.949 µM, first compound 0.01 µM
[7] = second compound 0.949 µM, first compound 0.0316 µM
[8] = second compound 0.949 µM, first compound 0.1 µM
[9] = second compound 3 µM, first compound 0.00316 µM
[10] = second compound 3 µM, first compound 0.01 µM
[11] = second compound 3 µM, first compound 0.0316 µM
[12] = second compound 3 µM, first compound 0.1 µM
[13] = second compound 9.49 µM, first compound 0.00316 µM
[14] = second compound 9.49 µM, first compound 0.01 µM
[15] = second compound 9.49 µM, first compound 0.0316 µM
[16] = second compound 9.49 µM, first compound 0.1 µM
[17] = second compound 30 µM, first compound 0.00316 µM
[18] = second compound 30 µM, first compound 0.01 µM
[19] = second compound 30 µM, first compound 0.0316 µM
[20] = second compound 30 µM, first compound 0.1 µM
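Note: spheroids exposed to drugs for 7 days.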

Row | SMILES | IC50 (second compound 0.3 µM) [nM] | IC50 (second compound 0.949 µM) [nM] | IC50 (second compound 3 µM) [nM] | IC50 (second compound 9.49 µM) [nM] | IC50 (second compound 30 µM) [nM] | viability, T/C [1] [%] | viability, T/C [2] [%] | viability, T/C [3] [%] | viability, T/C [4] [%] | viability, T/C [5] [%] | viability, T/C [6] [%] | viability, T/C [7] [%] | viability, T/C [8] [%] | viability, T/C [9] [%] | viability, T/C [10] [%] | viability, T/C [11] [%] | viability, T/C [12] [%] | viability, T/C [13] [%] | viability, T/C [14] [%] | viability, T/C [15] [%] | also measured
1 | COC1CC2CCC(C)C(O)(O2)C(=O)C(=O)N2CCCCC2C(=O)OC(C(C)CC2CCC(OCCO)C(OC)C2)CC(=O)C(C)C=C(C)C(O)C(OC)C(=O)C(C)CC(C)C=CC=CC=C1C (stereo not given) + CC(C)NCC(C(=O)N1CCN(c2ncnc3c2C(C)CC3O)CC1)c1ccc(Cl)cc1 | > 100 | > 100 | > 100 | > 100 | > 100 | 89.6 | 90 | 104 | 84.6 | 65.8 | 85.7 | 85.2 | 71.6 | 85.3 | 93.4 | 85.6 | 94.1 | 75.6 | 98 | 85.8 | viability, T/C (second compound 0.3 µM, first compound 0.000316 µM): 102%; viability, T/C (second compound 0.3 µM, first compound 0.001 µM): 91.5%; viability, T/C (second compound 0.949 µM, first compound 0.000316 µM): 83.6%; viability, T/C (second compound 0.949 µM, first compound 0.001 µM): 87.1%; viability, T/C (second compound 3 µM, first compound 0.000316 µM): 99.2%; viability, T/C (second compound 3 µM, first compound 0.001 µM): 68.7%; viability, T/C (second compound 9.49 µM, first compound 0.000316 µM): 98.9%; viability, T/C (second compound 9.49 µM, first compound 0.001 µM): 84.6%; viability, T/C [16]: 73.8%; viability, T/C (second compound 30 µM, first compound 0.000316 µM): 90.2%; viability, T/C (second compound 30 µM, first compound 0.001 µM): 96.8%; viability, T/C [17]: 82.3%; viability, T/C [18]: 96.8%; viability, T/C [19]: 97.3%; viability, T/C [20]: 72.6%
2 | COc1c(OCCCN2CCOCC2)ccc2c3n(c(=NC(=O)c4cnc(N)nc4)nc12)CCN3 + CC(C)NCC(C(=O)N1CCN(c2ncnc3c2C(C)CC3O)CC1)c1ccc(Cl)cc1 | 269 | 391 | > 1000 | > 1000 | 276 | 87.3 | 78.4 | 65 | 57.2 | 76.6 | 75.1 | 73.8 | 62.2 | 97.7 | 71.4 | 68.1 | 61.5 | 83.5 | 87.2 | 72 | viability, T/C (second compound 0.3 µM, first compound 0.316 µM): 49.5%; viability, T/C (second compound 0.3 µM, first compound 1 µM): 42.5%; viability, T/C (second compound 0.949 µM, first compound 0.316 µM): 56.2%; viability, T/C (second compound 0.949 µM, first compound 1 µM): 31.9%; viability, T/C (second compound 3 µM, first compound 0.316 µM): 51%; viability, T/C (second compound 3 µM, first compound 1 µM): 50.1%; viability, T/C [16]: 62.1%; viability, T/C (second compound 9.49 µM, first compound 0.316 µM): 60.5%; viability, T/C (second compound 9.49 µM, first compound 1 µM): 56.4%; viability, T/C [17]: 93.6%; viability, T/C [18]: 77.6%; viability, T/C [19]: 73.6%; viability, T/C [20]: 59.1%; viability, T/C (second compound 30 µM, first compound 0.316 µM): 43%; viability, T/C (second compound 30 µM, first compound 1 µM): 47.8%
